Assay results: patent publication US8207211B2, “Photosensitizers for targeted photodynamic therapy” (The General Hospital Corporation, priority 2005, dated 2012)

How the values were obtained:
[1] = Octanol-water distribution coefficient; assay type: physicochemical; conditions: 1-octanol/DI water, absorbance at 330 nm
Experimental: Each compound was dissolved in a minimum amount of DMSO: CI1 (0.9 mg in 200 μl), CI2 (5.3 mg in 200 μl), CI3 (5.4 mg in 200 μl). Ten ml of DI water and 10 ml of 1-octanol were added in each compound and vigorously shaken for 2 min. and the vials of the compounds were settled down overnight. The phases were separated and UV-spectra of each phase were analyzed. Distribution coefficient of each compound was determined using absorbance of aqueous phases and organic phases at 330 nm.

[2] = system: L929 murine fibroblast line; test: Mammalian cell toxicity, MTT viability assay after illumination; assay type: cell-based, mouse; conditions: 10 μM, 10 min; for toxicity to L929 mammalian cells at fluences used for PDI of pathogens: white light up to 50 J/cm^2
From the text: Experiments to test the effect of functionalized fullerenes on mammalian cells can be performed in a suitable mammalian cell line. One such cell line is the L929 murine fibroblast line (ATCC #CCL1), a spontaneously transformed immortalized cell line established from the normal subcutaneous areolar and adipose tissue of a male C3H/An mouse (Earle, W. R., Schilling, E. L., Stark, T. H., Straus, N. P., Brown, M. F., and Shelton, E. (1943). Production of malignancy in vitro. IV. The mouse fibroblast cultures and changes seen in the living cells. J. Natl. Cancer Inst. 4, 165-212). In a suitable assay, these cells were cultured in Dulbecco's modified Eagle's medium (Sigma) at 37° C. in a humidified atmosphere containing 5% CO2. The medium is preferably modified by using 4 mM L-glutamine (containing 1.5 g/l sodium bicarbonate and 4.5 g/l glucose), 10% fetal bovine serum (FBS), 100 U/ml penicillin, and […] streptomycin. Cells were plated in 96-well cell culture plates, at a density of about 300 cells/well, and are allowed to attach for 24 hr.
Fullerenes and other PS, e.g., TBO, were added at a concentration of about 10 μM in 200 μl complete medium per well. After 10 min, fresh medium is added, and the cultures were illuminated with white light (for fullerenes) or with red light (for TBO). At the completion of the illumination period, cells were returned to the incubator for 24 hr. Cell viability can be determined, for example, by using the MTT-microculture tetrazolium assay, a method of assessing cellular response to PDT (Merlin, J. L., Azzi, S., Lignon, D., Ramacci, C., Zeghari, N., and Guillemin, F. (1992). MTT assays allow quick and reliable measurement of the response of human tumour cells to photodynamic therapy. Eur. J. Cancer 28A, 1452-1458. This assay involves the reduction of a colorless substrate, i.e., 3-[4,5-Dimethylthiazol-2-yl]-diphenyltetrazolium bromide (Sigma, St. Louis, […].) to an insoluble dark-blue formazan product which is formed in proportion to the amount of succinate dehydrogenase activity in the mitochondria of living cells. After incubation with MTT for periods ranging from 4 to 8 hr, the medium was aspirated from each well, and […] DMSO is added. The absorbance at 570 nm was read by a microplate reader, e.g., a Spectra Max™ 340 PC (Molecular Devices, Sunnyvale, Calif.). The fraction of cells surviving was calculated by dividing the mean absorbances of formazan produced from PDT-treated cells by the mean absorbances from dark controls incubated with PS and kept at room temperature for periods of time equal to the irradiation times.

[3] = Solubility in DMSO stock solution; assay type: physicochemical; conditions: lower stock concentration used than for the other fullerenes
Experimental: (§1) Typically, derivatized fullerenes prepared as described above are dissolved in DMSO to provide stock solutions having final concentrations of about 5 mM. […] All stock solutions were stored in the dark at room temperature.
Six fullerene derivatives (NI1-3 and CI1-3) were evaluated. […] Concentration of fullerene derivatives used in the experiments varied between 1 and 100 μM.

[4] = system: P. aeruginosa; test: Photodynamic inactivation (PDI), CFU survival, white light (red light for TBO); assay type: cell-based, Pseudomonas aeruginosa; conditions: 10 μM; for PDT activity against P. aeruginosa: white light up to 50 J/cm^2
Experimental: (§2) Staphylococcus aureus (ATCC #35556), Escherichia coli (ATCC #25922), and Pseudomonas aeruginosa (ATCC #BAA-47; PAO1) were cultured in brain-heart infusion (BHI) broth (Difco, BD Diagnosttic Systems, Sparks, Md.) at 37° C. in aerobic conditions in a shaker at 150 rpm. Candida albicans (ATCC #18804) is grown in YM broth (Difco). Exponential cultures obtained by reculturing stationary overnight precultures were used for experiments.
(§3) E. coli, P. aeruginosa, and S. aureus are grown in fresh medium for approximately 1 hr to a density of about 10^8 cells/ml; the OD values at 650 nm are 0.6, 0.8, and 0.8, respectively. C. albicans is grown for approximately 4 hr to an approximate density of 10^8 cells/ml, corresponding to an OD of 6 at 650 nm (measured at 10-fold dilution). Cells were used for experiments in the mid-log growth phase.
(§4) A noncoherent lamp with filtered liquid light guides, e.g., a LumaCare™ LC122 lamp (MBG Technologies, Inc., Newport Beach, Calif.) was used to provide illumination of PS. More specifically, for illumination of fullerenes, a broad-band white light band pass filter (400-700 nm) was used, whereas for TBO, a band pass filter at 620-650 nm was used. The lamp was adjusted to give a uniform spot of about 4 cm diameter with an irradiance of 200 mW/cm^2, as measured with a power meter, e.g., a model DMM 199 meter with 201 Standard head (Coherent, Santa Clara, Calif.).
as §1
(§5) In some experiments, for example in studies described in Examples below, suspensions of S. aureus cells (10^8 per ml) were incubated with derivatized fullerenes such as NI-1-3 and CI1-3 at a concentration of 100 μM in PBS at room temperature for 10 min. In other experiments, the bacterial suspension was centrifuged (4000×g for 10 min) after incubation and resuspended in fresh PBS before illumination; the latter procedure was referred to herein as a “wash.” E. coli, P. aeruginosa, and C. albicans were used at concentrations of about 10^8 cells per ml.
(§6) Illumination was carried out from above on microbial cell suspensions in wells of a 24-well plate. Aliquots were removed at times corresponding to the delivery of calculated fluences of light, and were serially diluted in PBS and streaked on square BHI or YM agar plates according to the method of Jett et al. (Jett, B. D., Hatter, K. L., Huycke, M. M., and Gilmore, M. S. (1997). Simplified agar plate method for quantifying viable bacteria. Biotechniques 23, 648-650). Survival fractions were calculated with reference to cells incubated in PBS alone. Values on killing curves at 0 J/cm^2 represent the dark toxicity of the fullerenes or other PS tested. Control cells were treated with light and no PS and also analyzed for viability.

[5] = system: S. aureus; test: as above; assay type: cell-based, Staphylococcus aureus
Experimental: as §2, §3
as §4, with “More specifically, for illumination of fullerenes, a broad-band white light band pass filter (400-700 nm) was used, whereas for TBO, a band pass filter at 620-650 nm was used.” left out, “Calif.). […]” for “Calif.).”
Illumination was carried out from above on microbial cell suspensions in wells of a 24-well plate. […] Survival fractions were calculated with reference to cells incubated in PBS alone. […]

[6] = system: E. coli; test: as above; assay type: cell-based, Escherichia coli; conditions: 10 μM; for change of E. coli killing in the presence of serum versus no serum: white light; for PDT activity against E. coli: white light up to 50 J/cm^2
Experimental: as §2, §3, §4, §1, §5, §6

[7] = system: S. aureus; test: as above; assay type: cell-based, Staphylococcus aureus; conditions: for PDT activity against S. aureus: 10 min, white light up to 50 J/cm^2
[8] = system: C. albicans; test: as above; assay type: cell-based, Candida albicans; conditions: 10 μM; for PDT activity against C. albicans: white light up to 50 J/cm^2
Experimental: as §2, §3, §4, §1, §5, §6

[9] = 10 min incubation, up to 16 J/cm2 of red light
[10] = same fluence as for the fullerenes, presence or absence of serum

In the case of `C[N+]1(C)CC2c3c4ccc5c6ccc7c8ccc9c%10ccc%11c(c%12c3c3c4c5c4c6c7c5c8c9c6c%10c%11c%12c7c3c4c5c67)C2C1` (stereo not drawn) [CI1], the “Kow (octanol-water partition constant)” value [1] is reported as 140.80, the LogKow [1] is reported as 2.15 and the “toxicity to L929 mammalian cells at fluences used for PDI of pathogens” value [2] is reported as “not killed”. For the same compound, the “solubility in DMSO (stock solution)” value [3] was “poorly soluble”, the “PDT activity against P. aeruginosa” value ([4]; 10 min) was “effectively killed” and the “killing of P. aeruginosa” value ([4]; 10 min, with a wash, white light up to 16 J/cm^2) was 2 logs. For the same compound, the “dark toxicity to S. aureus (killing)” value ([5]; 100 μM, 10 min, 0 J/cm^2) was 99%, the “PDI of S. aureus” value ([5]; 100, 50, 25, 10 and 1 μM, with a wash, white light 4-8 J/cm2) was “fluence-dependent loss of viability” and the “change of E. coli killing in the presence of serum versus no serum” value ([6]; 10 min, 10% FBS, with a wash) was “unchanged”. For the same compound, the “PDT activity against E. coli” value ([6]; 10 min) was “effectively killed”, the “killing of E. coli” value ([6]; with a wash, 8 J/cm^2 white light) was 3 logs and the “PDT activity against S. aureus” value ([7]; 1 μM) was “effectively killed”. The “dark toxicity to S. aureus” value ([7]; 10 and 1 μM, with a wash) was “nonexistent” and the “PDT activity against C. albicans” value ([8]; 10 min) was “effectively killed”.

In the case of `C[N+]1(C)Cc2c(c3c4ccc5c6c7c(c8c9ccc%10c%11c%12c%13c(c2c2c3c3c4c5c4c6c8c5c9c%10c%12c6c(c%132)c3c4c56)C2C[N+](C)(C)CC%112)C[N+](C)(C)C7)C1` (stereo not drawn) [CI3], the “Kow (octanol-water partition constant)” value [1] is reported as 0.37, the LogKow [1] is reported as −0.43 and the “toxicity to L929 mammalian cells at fluences used for PDI of pathogens” value [2] is reported as “not killed”. The “PDT activity against P. aeruginosa” value ([4]; 10 min) was “effectively killed”, the “change of E. coli killing in the presence of serum versus no serum” value ([6]; 10 min, 10% FBS, with a wash) was “about 1 log” and the “PDT activity against E. coli” value ([6]; 10 min) was “effectively killed”. For the same compound, the “killing of E. coli” value ([6]; with a wash, 2 J/cm^2 white light) was 6 logs, the “PDT activity against S. aureus” value ([7]; 1 μM) was “effectively killed” and the “light sufficient to kill 4-5 logs of S. aureus” value ([7]; 1 μM, with a wash, white light) was 1 J/cm^2. For the same compound, the “PDT activity against C. albicans” value ([8]; 10 min) was “effectively killed” and the “relative effectiveness in killing C. albicans” value ([8]; 10 min, with a wash, white light) was “slightly more effective than CI2”.

In the case of `Cc1cc2nc3ccc(N(C)C)cc3[s+]c2cc1N.[Cl-]` [TBO, toluidine blue O, reference compound], the “dark toxicity toward L929 cells (killing)” value ([2]; 10% FBS, with a wash) is reported as “little dark toxicity”, the “fluence at which the limit of the viability assay was reached (L929)” value ([2]; 10% FBS, with a wash, red light) is reported as 80 J/cm^2 and the “additional phototoxicity toward L929 cells” value ([2]; 10% FBS, with a wash, white or red light up to 120 J/cm^2) is reported as “pronounced light-dependent toxicity”. The “killing of P. aeruginosa” value [4, 9] was no more than 90%, the “killing of P. aeruginosa” value [4, 10] was “less than 1 log” and the “PDI of E. coli in the presence of serum” value ([6]; 10 min, 10% FBS, with a wash, red light) was “almost ineffective”. The “killing of E. coli” value [6, 9] was no more than 90%, the “killing of S. aureus” value ([7]; 1 μM, 10 min incubation, up to 16 J/cm2 of red light) was no more than 90% and the “killing of S. aureus” value ([7]; 1 μM, same fluence as for the fullerenes, presence or absence of serum) was “less than 1 log”. The “killing of C. albicans” value [8, 9] was no more than 90% and the “killing of C. albicans” value [8, 10] was “less than 1 log”.
